Experiments:
Assay in all cases: NCI-60 single-dose screen
Format in all cases: cell-based
[1] = tested on: A498; details: Homo sapiens; A498, 10^–5 M; read-out: GI (%)
Excerpt: (§1) In the next step, all synthesized compounds were electronically submitted and accepted for testing to the National Cancer Institute (NCI) platform, for the single dose (10^−5 M) screening against a panel of 60 human tumor cell lines, representing leukemia, melanoma, and cancers of the lung, colon, central nervous system, ovary, kidney, prostate, and breast. The results are summarized in Table 2, with the best values highlighted in red (Figures S1–S14).

[2] = tested on: A549/ATCC; details: Homo sapiens, 10^–5 M, read-out: GI (%)
Excerpt: as §1

[3] = tested on: ACHN; details: Homo sapiens, 10^–5 M, read-out: GI (%)
Excerpt: as §1

[4] = tested on: CAKI-1; details: Homo sapiens; CAKI-1, 10^–5 M; read-out: GI (%)
Excerpt: as §1

[5] = tested on: COLO205; details: Homo sapiens, COLO 205; COLO205, 10^–5 M; read-out: GI (%)
Excerpt: as §1

[6] = tested on: DU-145; details: Homo sapiens; DU-145, 10^–5 M; read-out: GI (%)
Excerpt: as §1

[7] = tested on: HCT-116; details: Homo sapiens; HCT-116, 10^–5 M; read-out: GI (%)
Excerpt: as §1

[8] = tested on: HL-60(TB); details: Homo sapiens, 10^–5 M, read-out: GI (%)
Excerpt: as §1

[9] = tested on: HS 578T; details: Homo sapiens, 10^–5 M, read-out: GI (%)
Excerpt: as §1

[10] = tested on: HT-29; details: Homo sapiens; HT-29, 10^–5 M; read-out: GI (%)
Excerpt: as §1

[11] = tested on: IGROV1; details: Homo sapiens, IGROV-1; IGROV1, 10^–5 M; read-out: GI (%)
Excerpt: as §1

[12] = tested on: K-562; details: Homo sapiens, K562; K-562, 10^–5 M; read-out: GI (%)
Excerpt: as §1

[13] = tested on: KM12; details: Homo sapiens; KM12, 10^–5 M; read-out: GI (%)
Excerpt: as §1

[14] = tested on: LOX IMVI; details: Homo sapiens, 10^–5 M, read-out: GI (%)
Excerpt: as §1

[15] = tested on: M14; details: Homo sapiens; M14, 10^–5 M; read-out: GI (%)
Excerpt: as §1

[16] = tested on: MALME-3M; details: Homo sapiens, 10^–5 M, read-out: GI (%)
Excerpt: as §1

[17] = tested on: MCF7; details: Homo sapiens; MCF7, 10^–5 M; read-out: GI (%)
Excerpt: as §1

[18] = tested on: MDA-MB-231/ATCC; details: Homo sapiens, 10^–5 M, read-out: GI (%)
Excerpt: as §1

[19] = tested on: MDA-MB-435; details: Homo sapiens; MDA-MB-435, 10^–5 M; read-out: GI (%)
Excerpt: as §1

[20] = tested on: NCI-H23; details: Homo sapiens; NCI-H23, 10^–5 M; read-out: GI (%)
Excerpt: as §1

[21] = tested on: NCI-H322M; details: Homo sapiens, 10^–5 M, read-out: GI (%)
Excerpt: as §1

[22] = tested on: NCI-H522; details: Homo sapiens; NCI-H522, 10^–5 M; read-out: GI (%)
Excerpt: as §1

[23] = tested on: NCI/ADR-RES; details: Homo sapiens, 10^–5 M, read-out: GI (%)
Excerpt: as §1

[24] = tested on: OVCAR-3; details: Homo sapiens; OVCAR-3, 10^–5 M; read-out: GI (%)
Excerpt: as §1

[25] = tested on: OVCAR-4; details: Homo sapiens; OVCAR-4, 10^–5 M; read-out: GI (%)
Excerpt: as §1

[26] = tested on: OVCAR-5; details: Homo sapiens; OVCAR-5, 10^–5 M; read-out: GI (%)
Excerpt: as §1

[27] = tested on: PC-3; details: Homo sapiens, PC-3, PC-3, 10^–5 M; read-out: GI (%)
Excerpt: as §1

[28] = tested on: RPMI-8226; details: Homo sapiens; RPMI-8226, 10^–5 M; read-out: GI (%)
Excerpt: as §1

[29] = tested on: SF-539; details: Homo sapiens; SF-539, 10^–5 M; read-out: GI (%)
Excerpt: as §1

[30] = tested on: SK-MEL-28; details: Homo sapiens; SK-MEL-28, 10^–5 M; read-out: GI (%)
Excerpt: as §1

[31] = tested on: SK-MEL-5; details: Homo sapiens; SK-MEL-5, 10^–5 M; read-out: GI (%)
Excerpt: as §1

[32] = tested on: SK-OV-3; details: Homo sapiens; SK-OV-3, 10^–5 M; read-out: GI (%)
Excerpt: as §1

[33] = tested on: SN12C; details: Homo sapiens, 10^–5 M, read-out: GI (%)
Excerpt: as §1

[34] = tested on: SNB-19; details: Homo sapiens; SNB-19, 10^–5 M; read-out: GI (%)
Excerpt: as §1

[35] = tested on: SNB-75; details: Homo sapiens; SNB-75, 10^–5 M; read-out: GI (%)
Excerpt: as §1

[36] = tested on: SR; details: Homo sapiens, 10^–5 M, read-out: GI (%)
Excerpt: as §1

[37] = tested on: T-47D; details: Homo sapiens, T47D, 10^–5 M, read-out: GI (%)
Excerpt: as §1

[38] = tested on: TK-10; details: Homo sapiens; TK-10, 10^–5 M; read-out: GI (%)
Excerpt: as §1

[39] = tested on: UACC-257; details: Homo sapiens; UACC-257, 10^–5 M; read-out: GI (%)
Excerpt: as §1

SMILES	inhibition at 10 µM [1] [%]	inhibition at 10 µM [2] [%]	inhibition at 10 µM [3] [%]	inhibition at 10 µM [4] [%]	inhibition at 10 µM [5] [%]	inhibition at 10 µM [6] [%]	inhibition at 10 µM [7] [%]	inhibition at 10 µM [8] [%]	inhibition at 10 µM [9] [%]	inhibition at 10 µM [10] [%]	inhibition at 10 µM [11] [%]	inhibition at 10 µM [12] [%]	inhibition at 10 µM [13] [%]	inhibition at 10 µM [14] [%]	inhibition at 10 µM [15] [%]	inhibition at 10 µM [16] [%]	inhibition at 10 µM [17] [%]	inhibition at 10 µM [18] [%]	inhibition at 10 µM [19] [%]	inhibition at 10 µM [20] [%]	other results
O=C1C(Nc2ccc(I)cc2)=CC(c2ccco2)N1c1ccc(I)cc1 (stereo not drawn) [3m]	12	16	9	53	8	0	20	30	39	6	8	14	48	63	4	34	93	11	84	19	inhibition at 10 µM [21]: 19%; inhibition at 10 µM [22]: 31%; inhibition at 10 µM [23]: 15%; inhibition at 10 µM [24]: 8%; inhibition at 10 µM [25]: 0%; inhibition at 10 µM [26]: 0%; inhibition at 10 µM [27]: 28%; inhibition at 10 µM [28]: 93%; inhibition at 10 µM [29]: 63%; inhibition at 10 µM [30]: 20%; inhibition at 10 µM [31]: 17%; inhibition at 10 µM [32]: 67%; inhibition at 10 µM [33]: 27%; inhibition at 10 µM [34]: 8%; inhibition at 10 µM [35]: 9%; inhibition at 10 µM [36]: 76%; inhibition at 10 µM [37]: 49%; inhibition at 10 µM [38]: 7%; inhibition at 10 µM [39]: 32%
O=C1C(Nc2ccc(I)cc2)=CC(c2ccc(F)cc2)N1c1ccc(I)cc1 (stereo not drawn) [3b]	21	13	35	13	27	9	21	35	90	16	7	5	26	0	4	6	56	6	0	8	inhibition at 10 µM [21]: 10%; inhibition at 10 µM [22]: 26%; inhibition at 10 µM [23]: 9%; inhibition at 10 µM [24]: 9%; inhibition at 10 µM [25]: 38%; inhibition at 10 µM [26]: 0%; inhibition at 10 µM [27]: 0%; inhibition at 10 µM [28]: 35%; inhibition at 10 µM [29]: 51%; inhibition at 10 µM [30]: 8%; inhibition at 10 µM [31]: 5%; inhibition at 10 µM [32]: 12%; inhibition at 10 µM [33]: 28%; inhibition at 10 µM [34]: 8%; inhibition at 10 µM [35]: 100%; inhibition at 10 µM [36]: 92%; inhibition at 10 µM [37]: 32%; inhibition at 10 µM [38]: 27%; inhibition at 10 µM [39]: 8%
O=C1C(Nc2ccc(I)cc2)=CC(c2ccc(Br)cc2)N1c1ccc(I)cc1 (stereo not drawn) [3d]	5	0	15	12	0	0	19	0	41	14	16	15	17	1	0	0	60	0	0	3	inhibition at 10 µM [21]: 0%; inhibition at 10 µM [22]: 2%; inhibition at 10 µM [23]: 0%; inhibition at 10 µM [24]: 5%; inhibition at 10 µM [25]: 30%; inhibition at 10 µM [26]: 0%; inhibition at 10 µM [27]: 0%; inhibition at 10 µM [28]: 34%; inhibition at 10 µM [29]: 0%; inhibition at 10 µM [30]: 12%; inhibition at 10 µM [31]: 20%; inhibition at 10 µM [32]: 0%; inhibition at 10 µM [33]: 15%; inhibition at 10 µM [34]: 6%; inhibition at 10 µM [35]: 3%; inhibition at 10 µM [36]: 0%; inhibition at 10 µM [37]: 49%; inhibition at 10 µM [38]: 0%; inhibition at 10 µM [39]: 3%
COc1cc(OC)c(C2C=C(Nc3ccc(I)cc3)C(=O)N2c2ccc(I)cc2)cc1OC (stereo not drawn) [3k]	0	3	0	15	0	0	4	2	0	0	2	0	2	5	0	0	23	0	0	0	inhibition at 10 µM [21]: 4%; inhibition at 10 µM [22]: 2%; inhibition at 10 µM [23]: 0%; inhibition at 10 µM [24]: 0%; inhibition at 10 µM [25]: 3%; inhibition at 10 µM [26]: 0%; inhibition at 10 µM [27]: 0%; inhibition at 10 µM [28]: 14%; inhibition at 10 µM [29]: 18%; inhibition at 10 µM [30]: 0%; inhibition at 10 µM [31]: 12%; inhibition at 10 µM [32]: 0%; inhibition at 10 µM [33]: 2%; inhibition at 10 µM [34]: 0%; inhibition at 10 µM [35]: 0%; inhibition at 10 µM [36]: 7%; inhibition at 10 µM [37]: 8%; inhibition at 10 µM [38]: 1%; inhibition at 10 µM [39]: 0%
